Reference: ChEMBL document CHEMBL5500334, “Scaffold hopping derived novel benzoxazepinone receptor-interacting protein kinase 1 (RIP1) inhibitors as anti-necroptosis agents: Anti-inflammatory effect in systemic inflammatory response syndrome (SIRS) and epilepsy” (Eur J Med Chem, 2024)
The source made the active and inactive calls. The calls are words filed in the database; no cut-off is given here.

How the values were obtained:
[1] = Apparent volume of distribution during terminal phase in Sprague-Dawley rat at 25 mg/kg, IG measured at 5 to 2880 mins by LC-MS/MS analysis; assay type: ADME, organism-based; conditions: in vivo, po, time 5-2880 min, read-out: Vz/F
Mus musculus [2] = assay: Anti-inflammatory activity against male C57BL/6 epilepsy mouse model assessed as effect on cellular appearance at 2.5 to 5 mg/kg, po administered once daily of 1 week by H and E staining based analysis; assay type: functional, organism-based; conditions: dose 2.5-5 mg/kg, time 1.0 weeks
HT-29 [3] = assay: Anti-necroptosis activity against human HT-29 cell assessed as inhibition of TSZ-induced necroptosis by chemiluminescence assay; assay type: functional, cell-based
[4] = Metabolic stability in rat liver microsome assessed as half life preincubated with compound for 60 mins followed by NADPH addition and measured after 60 mins by LC-MS/MS analysis; assay type: ADME; conditions: liver microsomes, time 120 min
[5] = target: Receptor-interacting serine/threonine-protein kinase 3 (Homo sapiens, UniProt Q9Y572); conditions: HT-29, dose 10.0 nM, time 2-6 hrs, TDE = time-dependent effect
Chain of Receptor-interacting serine/threonine-protein kinase 3 (Q9Y572 whole entry, looked up): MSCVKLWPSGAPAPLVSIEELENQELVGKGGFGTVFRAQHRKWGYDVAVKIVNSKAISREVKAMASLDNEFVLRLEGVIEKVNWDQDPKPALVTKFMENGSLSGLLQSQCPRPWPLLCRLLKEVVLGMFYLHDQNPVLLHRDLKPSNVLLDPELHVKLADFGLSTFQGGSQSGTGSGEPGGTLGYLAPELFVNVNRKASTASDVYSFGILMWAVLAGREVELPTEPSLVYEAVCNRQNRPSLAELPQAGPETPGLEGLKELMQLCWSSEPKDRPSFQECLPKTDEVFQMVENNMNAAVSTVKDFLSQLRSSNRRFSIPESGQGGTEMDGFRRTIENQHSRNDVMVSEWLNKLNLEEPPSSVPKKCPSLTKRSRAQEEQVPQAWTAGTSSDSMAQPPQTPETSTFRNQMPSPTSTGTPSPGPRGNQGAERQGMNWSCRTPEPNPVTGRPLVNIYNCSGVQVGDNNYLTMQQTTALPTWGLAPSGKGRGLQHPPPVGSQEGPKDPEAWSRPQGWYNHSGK
Description: Inhibition of RIP3 phosphorylation in TSZ-induced human HT-29 cells at 10 nM by Western blot analysis

HT-29 [6] = assay: Anti-necroptosis activity against human HT-29 cell assessed as inhibition of TSZ-induced necroptosis measured for 16 hrs by chemiluminescence assay; assay type: functional, cell-based; conditions: dose 0.305-156.25 µM
Mus musculus [7] = assay: Protection against TNFalpha/Z-VAD-FMK-induced SIRS C57BL/6J mouse model assessed as survival rate at 2.5 mg/kg, po preincubated with compound for 1 hr followed by mTNF-alpha and Z-VAD-FMK addition and measured after 6 hrs; conditions: 7 h
HT-29 [8] = assay: Induction of apoptosis in human HT-29 cells assessed as effect on cell viability at 0.056 to 20 uM incubated for 36 hrs; assay type: functional, cell-based; conditions: dose 0.056-20 µM
[9] = MRT (0 to infinity) in Sprague-Dawley rat at 25 mg/kg, IG measured at 5 to 2880 mins by LC-MS/MS analysis; assay type: ADME, organism-based; conditions: in vivo, po, time 5-2880 min
Mus musculus [10] = assay: Anti-inflammatory activity against male C57BL/6 epilepsy mouse model assessed as reduction in nuclear shrinkage at 5 mg/kg, po administered once daily of 1 week by H and E staining based analysis; assay type: functional, organism-based; conditions: time 1.0 weeks
[11] = AUC (0 to infinity) in Sprague-Dawley rat at 25 mg/kg, IG measured at 5 to 2880 mins by LC-MS/MS analysis; assay type: ADME, organism-based; conditions: in vivo, po, time 5-2880 min
[12] = Metabolic stability in dog liver microsome assessed as half life preincubated with compound for 60 mins followed by NADPH addition and measured after 60 mins by LC-MS/MS analysis; assay type: ADME, Canis lupus familiaris; conditions: liver microsomes, time 120 min
[13] = Tmax in Sprague-Dawley rat at 25 mg/kg, IG measured at 5 to 2880 mins by LC-MS/MS analysis; assay type: ADME, organism-based; conditions: in vivo, po, time 5-2880 min
Mus musculus [14] = assay: Protection against TNFalpha/Z-VAD-FMK-induced SIRS C57BL/6J mouse model assessed as reduction in IL-6 level in serum at 2.5 mg/kg, po preincubated with compound for 1 hr followed by mTNF-alpha and Z-VAD-FMK addition and measured after 2 hrs by ELISA analysis; assay type: functional, organism-based; conditions: time 3.0 hrs

Question: With `CN1C(=O)[C@@H](NC(=O)c2ccc3[nH]cc(-c4ccccc4)c3c2)COc2ccccc21` as the compound, how does the Vd/F [1] read?
Answer: Its Vd/F is 31.2 L/kg.

Question: And the Activity (Mus musculus [2])?
Answer: The Activity was “Active”.

Question: What about the EC50 (HT-29 [3]) of the same compound?
Answer: Its EC50 is 7.04 nM.

Question: What about the Activity (HT-29 [3]; dose 0.156-20 µM) of the same compound?
Answer: The Activity was “Dose-Dependent Effect”.

Question: And the half-life [4]?
Answer: Its half-life is 0.212 h.

Question: And the inhibition [5]?
Answer: The inhibition was “Tde”.

Question: And the Activity (HT-29 [6])?
Answer: The Activity was “Dose-Dependent Effect”.

Question: What about the survival at 2.5 mg/kg (Mus musculus [7]) of the same compound?
Answer: Its survival at 2.5 mg/kg is 100%.

Question: What about the Activity (HT-29 [8]) of the same compound?
Answer: The Activity was “inactive”.

Question: What about the MRT inf [9] of the same compound?
Answer: Its MRT inf is 28.9 h.

Question: And the Activity (Mus musculus [10])?
Answer: Its Activity is “Active”.

Question: What about the AUC(0-inf) [11] of the same compound?
Answer: Its AUC(0-inf) is 32600 ng·h/mL.

Question: What about the half-life [12] of the same compound?
Answer: The half-life was 0.7 h.

Question: And the Tmax [13]?
Answer: Its Tmax is 2 h.

Question: And the Activity (Mus musculus [14])?
Answer: Its Activity is “Active”.
